In PMC4923258, “A Recombinant Human Pluripotent Stem Cell Line Stably Expressing Halide-Sensitive YFP-I152L for GABAAR and GlyR-Targeted High-Throughput Drug Screening and Toxicity Testing” (Frontiers in Molecular Neuroscience, 2016):
Where “and” joins values, the source holds several entries; their conditions need not be identical. Identical values can stand only once. Like-named read-outs stand apart in the source and are kept apart here.

What was measured:
GABAAR [1] = type: cell-based, human; conditions: 1 μM GABA
Description: (§1) To this end, human pluripotent NT2-YFP-I152L cells were differentiated into neuronal NT2-N-YFP-I152L cells as described in the Methods section and were seeded at a density of 2 × 10^4 cells in each well of a 96-well plate. 48 h later, the culture medium was completely removed and was replaced by 50 μl NaCl control solution.
(§2) Approximately 1 h prior to commencement of experiments culture media in 96-well plates was removed manually and was replaced by 50 μl standard control solution, which contained (in mM) NaCl 140, KCl 5, CaCl2 2, MgCl2 1, HEPES 10, and glucose 10 (pH 7.4, NaOH) upon washing the cells once in 50 μl standard control solution. […] All drugs were diluted from stocks at the day of the experiment and experiments were conducted at room temperature.
(§3) The experimental protocol involved imaging each well for 30 s at 2 Hz acquisition rate capturing the initial fluorescence intensity in the control situation as well as the test situation upon receptor activation, respectively. Liquid handling was performed manually.
(§4) Cells depicted in fluorescence micrographs were selected manually based on strongest quench for low and intermediate concentrations and based on cell morphology in experiments where high drug concentrations were applied. Registered images of fluorescent cells were segmented and quantitatively analyzed using NIS-Elements software (Nikon, Japan). The fluorescence signal of identified cells was measured in images acquired before and after the addition of agonist solution as the mean of all pixel values within the area of a cell. “% fluorescence quench” in chloride imaging experiments is defined as %fluorescence quench=(Finit−Ffinal)∗100/Finit where Finit and Ffinal are the initial and final values of fluorescence, respectively.
(§5) Individual concentration responses were constructed by pooling results from ten cells in one well exposed to agonist solution. Concentration-response relationships were fitted with the following equation: F= Fmax+Fmin− Fmax/1+([Agonist]/EC50)^nH where F is the fluorescence corresponding to a particular agonist concentration, [Agonist]; Fmin and Fmax are the minimal and maximal fluorescence values, respectively; EC50 is the concentration that elicits half-maximal activation; and nH is the Hill coefficient. Curve fits were performed using a least squares fitting routine (Origin 7G, OriginLab Corporation). All averaged results are expressed as mean ± SD.

GlyR [2] = type: cell-based, human
Description: as §1, §2, §3, §4, §5

GABAAR [3] = experiment: Proportion of cells with at least 20% fluorescence quench at saturating GABA; type: cell-based, human; conditions: for Percentage of non-treated NT2-YFP-I152L stem cells responding with at least 20% fluorescence quench: 1 mM saturating GABA; for GABAAR-positive cells as percentage of the overall population / Percentage of cells per image with fluorescence quench of at least 20%: saturating GABA
Text: (§6) The applicability of the established recombinant in vitro model for high-throughput GABAAR and GlyR-targeted screening in the context of lead identification and NT/DNT testing strongly depends on the proportion of GABAAR and GlyR positive NT2-N cells in the whole cell population. A very small percentage of GABAAR and GlyR expressing NT2-N cells requires a large number of individual experiments including technical and biological replicates to be conducted in order to obtain statistically sound results, potentially compromising the usability of the established cell line for the envisioned application. […] The threshold of 20% fluorescence quench was chosen because, from our experience, any measured cellular fluorescence change within a range of −20 to 20% reflects biological noise typical to the employed assay. As a starting point toward analysing the proportion of GABAAR and GlyR-positive cells we segmented the images of a total of 24 individual experiments from two different differentiation batches (GABAAR, batch #1: n = 7, batch #2: n = 6; GlyR, batch #1: n = 6, batch #2: n = 5) using a modified version of DetecTIFF^© software (Gilbert et al., [2009c]) employing two individual sets of parameters for the identification of small neuronal NT2-N-YFP-I152L and larger non-neuronal NT2-YFP-I152L cells. […] Exemplary segmentation masks created from the image shown in Figure 6A for quantitative analysis of fluorescence intensity and calculation of “% fluorescence quench” in small neuronal NT2-N-YFP-I152L cells and large non-neuronal cells are depicted in Figures 6B,C.
(§7) Images of fluorescent cells were segmented and quantitatively analyzed using a modified version of DetecTIFF® software (Gilbert et al., [2009c]). In brief, images were segmented using an iterative size and intensity-based thresholding algorithm and the fluorescence signal of identified cells was calculated as the mean of all pixel values within the area of a cell.

GABAAR [4] = type: cell-based, human; conditions: GABA concentration-response, mean ± SD, n = 10
Description: (§8) To assess whether the generated recombinant stem cell line is suitable to chloride imaging and functional profiling of GABAARs and GlyRs, NT2-YFP-I152L cells were differentiated into neuronal NT2-N- YFP-I152L cells as described in the Methods section and were seeded at defined density of 2 × 10^4 cells in each well of a 96-well plate. Two days later and approximately 1 h prior to fluorescence imaging, the culture medium was completely removed and was replaced by 50 μl NaCl control solution. The standard NaCl control solution contained (in mM): NaCl 140, KCl 5, CaCl2 2, MgCl2 1, HEPES 10, glucose 10, pH 7.4 using NaOH. The 96-well plate was placed onto the motorized stage of a high-content imaging system and cells were imaged in control solution to record cellular YFP fluorescence in unquenched state. Because YFP-I152L is almost insensitive to chloride, its fluorescence intensity is highest in NaCl solution allowing for optimal focussing into the optical layer of cells. […] Fluorescence quench was calculated at single cell level by quantitative analysis as described in the Methods section. […]
(§9) The experimental protocol involved imaging each well for 30 s at 2 Hz acquisition rate capturing the initial fluorescence intensity in the control situation as well as the test situation upon receptor activation, respectively. […]

GlyR [5] = conditions: for Percentage of non-treated NT2-YFP-I152L stem cells responding with at least 20% fluorescence quench: 1 mM saturating glycine
Text: as §6, §7

GlyR [6] = conditions: mean ± SD, n = 10; for nH (Hill coefficient): glycine concentration-response
Description: as §8, §9
Cells depicted in fluorescence micrographs were selected manually based on strongest quench for low and intermediate concentrations and based on cell morphology in experiments where high drug concentrations were applied. Registered images of fluorescent cells were segmented and quantitatively analyzed using NIS-Elements software (Nikon, Japan). The fluorescence signal of identified cells was measured in images acquired before and after the addition of agonist solution as the mean of all pixel values within the area of a cell. “% fluorescence quench” in chloride imaging experiments is defined as %fluorescence quench=(Finit−Ffinal)∗100/Finit where Finit and Ffinal are the initial and final values of fluorescence, respectively. […]

GABAARs = test system: GABAARs; set-up: method as in Kumamoto and Murata, 1995; conditions: ref Kumamoto and Murata, 1995; cited from earlier work
GlyRs = test system: GlyRs; set-up: method as in Harvey et al., 1999; conditions: ref Harvey et al., 1999, cited from earlier work
[7] = read-out: IC50 (Glycine), 3 μM glycine, n = 10
[8] = 3 μM glycine, n = 10, read-out: IC50 (Glycine)

CN1CCc2cc3c(cc2[C@H]1[C@@H]1OC(=O)c2c1ccc1c2OCO1)OCO3 [Bicuculline, bicuculline]
IC50 (GABAAR [1]; read-out: IC50 (GABA), n = 10): 1.1 µM
Sensitivity of glycine-induced I- influx compared to GABA-dependent anion influx (lower) (GlyR [2]; ratio of IC50 vs glycine and IC50 vs GABA): about 10 fold
IC50 (GlyR [2]; [7]): 13.4 µM

N#Cc1nn(-c2c(Cl)cc(C(F)(F)F)cc2Cl)c(N)c1[S+]([O-])C(F)(F)F (stereo not drawn) [Fipronil, fipronil]
IC50 (GABAAR [1]; read-out: IC50 (GABA), n = 10): 10.8 µM
IC50 (GlyR [2]; [8]): 1.5 µM

NCCCC(=O)O [GABA, γ-aminobutyric acid]
Percentage of non-treated NT2-YFP-I152L stem cells responding with at least 20% fluorescence quench (GABAAR [3]; replicate #1): 0.62%
Percentage of non-treated NT2-YFP-I152L stem cells responding with at least 20% fluorescence quench (GABAAR [3]; replicate #2): 0.37%
GABAAR-positive cells as percentage of the overall population (GABAAR [3]; batch #1): 17 ± 8%
GABAAR-positive cells as percentage of the overall population (GABAAR [3]; batch #2): 21 ± 9%
Percentage of cells per image with fluorescence quench of at least 20% (GABAAR [3]; large non-neuronal cells, batch #1, n = 7): 3 ± 1%
Percentage of cells per image with fluorescence quench of at least 20% (GABAAR [3]; large non-neuronal cells, batch #2, n = 6): 6 ± 2%
Percentage of cells per image with fluorescence quench of at least 20% (GABAAR [3]; small cells (NT2-N-YFP-I152L), batch #1, n = 7): 28 ± 13%
Percentage of cells per image with fluorescence quench of at least 20% (GABAAR [3]; small cells (NT2-N-YFP-I152L), batch #2, n = 6): 32 ± 12%
nH (Hill coefficient) (GABAAR [4]): 1.8 ± 0.4 and 1.8

NCC(=O)O [Glycine, glycine]
Percentage of cells per image with fluorescence quench of at least 20% (GlyR [5]): 36 ± 14% and 35 ± 7%
Percentage of non-treated NT2-YFP-I152L stem cells responding with at least 20% fluorescence quench (GlyR [5]; replicate #1): 0.68%
Percentage of non-treated NT2-YFP-I152L stem cells responding with at least 20% fluorescence quench (GlyR [5]; replicate #2): 0.92%
GlyR-positive cells as percentage of the overall population (GlyR [5]; saturating glycine, batch #1): 20 ± 9%
GlyR-positive cells as percentage of the overall population (GlyR [5]; saturating glycine, batch #2): 19 ± 4%
Percentage of cells per image with fluorescence quench of at least 20% (GlyR [5]; saturating glycine, large non-neuronal cells, batch #1, n = 6): 2 ± 1%
Percentage of cells per image with fluorescence quench of at least 20% (GlyR [5]; saturating glycine, large non-neuronal cells, batch #2, n = 5): 4 ± 2%
nH (Hill coefficient) (GlyR [6]): 1.5
nH (Hill coefficient) (GlyR [6]; listed as glycine): 1.5 ± 0.2
EC50 (GlyR [6]; read-out: EC50 (half-maximal activation concentration), glycine 0.1-1000 μM in NaI solution, quench 30 s after activation): 4.3 µM

Cl[C@H]1[C@H](Cl)[C@@H](Cl)[C@@H](Cl)[C@H](Cl)[C@H]1Cl [Lindane, lindane]
Inhibition of GABA-induced anion influx (in words) (GABAAR [1]): no dose-dependent inhibitory activity
IC50 (GlyR [2]; [8]): 0.0781 µM

O=C1C[C@@H]2OCC=C3CN4CC[C@]56c7ccccc7N1[C@H]5[C@H]2[C@H]3C[C@H]46 [Strychnine, strychnine]
Inhibition of GABA-induced anion influx (in words) (GABAAR [1]): specifically inhibited glycine but not GABA-induced anion-influx
IC50 (GlyR [2]; [7]): 0.0172 µM

[Cl-].[Cl-].[Zn+2] [Zinc, zinc chloride]
Concentrations at which inhibition of GABA-induced anion influx was observed (GABAAR [1]): > 100 µM
IC50 (GABAAR [1]; zinc 10 nM-1 mM, could not be calculated, presumed, read-out: IC50 (GABA-induced anion influx)): > 1000 µM
Concentrations at which inhibition of glycine-induced anion influx was observed (GlyR [2]; 3 μM glycine): > 100 µM
IC50 (GlyR [2]; 3 μM glycine, zinc 10 nM-1 mM, could not be calculated, presumed, read-out: IC50 (glycine-induced anion influx)): > 1000 µM
Increase of glycine-induced fluorescence quench (GlyR [2]; in presence of 1 and 10 μM zinc, not significant): about 10%
Concentrations inhibiting GABAARs (GABAARs): > 10 µM
Concentrations inhibiting glycine-activated currents (GlyRs; high concentrations): > 100 µM
Concentrations potentiating glycine-activated currents (GlyRs; low concentrations): < 10 µM

picrotoxin
IC50 (GABAAR [1]; read-out: IC50 (GABA), n = 10): 5.8 µM
IC50 (GlyR [2]; [8]): 1.1 µM
Sensitivity of GlyR compared to GABAARs (higher) (GlyR [2]; ratio of IC50 vs GABA and IC50 vs glycine): approximately 5 fold
